In US20080145433A1 (GILEAD COLORADO, INC., priority 2006, published 2008):
Read-outs that look alike come from different tables or passages of the source.

Tests used:
ETB [1] = molecular target: T1, ETB (Homo sapiens, UniProt P24530); assay: 125[I]-endothelin-1 receptor binding cold ligand competition curves in human myocardial membranes (ETB); design: human myocardial membranes prepared from failing and non-failing left ventricles; from tissue; host or cells: human left ventricular myocardium (failing and non-failing), membranes; conditions: 10 μM Gpp(NH)p, 4-hour incubation, steady-state binding, mean of 8 assays
T1 sequence (P24530 27-442): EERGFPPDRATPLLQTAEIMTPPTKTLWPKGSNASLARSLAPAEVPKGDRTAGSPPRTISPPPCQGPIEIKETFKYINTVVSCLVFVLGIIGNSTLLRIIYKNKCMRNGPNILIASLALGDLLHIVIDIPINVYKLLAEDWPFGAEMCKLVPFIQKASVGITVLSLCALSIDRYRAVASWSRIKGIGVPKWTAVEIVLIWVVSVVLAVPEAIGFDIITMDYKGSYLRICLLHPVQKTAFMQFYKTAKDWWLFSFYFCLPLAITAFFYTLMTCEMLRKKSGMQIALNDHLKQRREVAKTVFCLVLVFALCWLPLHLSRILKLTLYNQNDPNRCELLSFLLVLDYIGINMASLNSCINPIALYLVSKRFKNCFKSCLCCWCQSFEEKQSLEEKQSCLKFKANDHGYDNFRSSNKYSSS

ETA [2] = molecular target: T2, ETA (Homo sapiens, UniProt P25101); assay: 125[I]-endothelin-1 receptor binding cold ligand competition curves in human myocardial membranes (ETA); design: human myocardial membranes prepared from failing and non-failing left ventricles; from tissue; host or cells: human left ventricular myocardium (failing and non-failing), membranes; conditions: mean of 8 assays
T2 sequence (P25101 21-427): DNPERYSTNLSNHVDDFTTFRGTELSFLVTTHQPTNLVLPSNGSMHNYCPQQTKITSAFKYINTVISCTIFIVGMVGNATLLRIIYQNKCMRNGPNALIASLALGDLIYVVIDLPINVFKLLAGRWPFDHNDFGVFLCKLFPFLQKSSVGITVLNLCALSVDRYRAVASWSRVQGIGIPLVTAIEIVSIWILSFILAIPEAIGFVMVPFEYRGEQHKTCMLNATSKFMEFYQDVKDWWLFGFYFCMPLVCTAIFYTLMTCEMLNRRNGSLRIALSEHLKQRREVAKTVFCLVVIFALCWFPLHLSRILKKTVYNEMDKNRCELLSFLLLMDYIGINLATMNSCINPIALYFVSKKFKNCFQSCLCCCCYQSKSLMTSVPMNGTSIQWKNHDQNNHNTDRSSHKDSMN

[3] = PK of darusentan tablets, single oral dose, congestive heart failure patients (Example 3); assay type: in vivo, human; conditions: CHF patients, single oral doses 10-300 mg
Source text: This was a multi-center, prospective, uncontrolled clinical trial. […] At least 12 patients received each dose, in addition to their normal medication for CHF.
Arithmetic means and standard deviations of Cmax, Tmax and AUC, based on individual values of these parameters calculated by standard PK methods, are presented in Table 3. As this was a single dose study, Cmin was not determined.

ETA [4] = molecular target: T2, ETA; conditions: Lip (2001); cited from earlier work
[5] = published values, Boss et al. (2001); cited from earlier work
ETA [6] = molecular target: T2, ETA; conditions: Riechers et al (1996); read-out: affinity for ETA (KiA); cited from earlier work
ETA [7] = molecular target: T2, ETA; assay: ETA receptor affinity reported by Riechers et al (1996); assay type: binding; conditions: calculated from Riechers et al (1996) data
ETB [8] = molecular target: T1, ETB; conditions: Riechers et al (1996); read-out: affinity for ETB (KiB); cited from earlier work

Row | Ki (ETB [1]) | Ki (ETA [2]; 10 μM Gpp(NH)p, 4-hour incubation, steady-state binding) | ETA selectivity (fold) (ETA [2]) | Pharmacokinetics: dose dependence of Cmax and AUC [3] | Compound | ETA/ETB selectivity (ETA [4]) | T1/2 [5] | Ki (ETA [6]) | ETA/ETB selectivity (KiB/KiA) (ETA [7]) | Ki (ETB [8])
1 | 216 ± 85 nM | 0.178 ± 0.055 nM | 1181 ± 148 fold | appeared to be linear | COc1cc(OC)nc(O[C@H](C(=O)O)C(OC)(c2ccccc2)c2ccccc2)n1 [darusentan, (+)-(S)-2-(4,6-dimethoxypyrimidin-2-yloxy)-3-methoxy-3,3-diphenylpropionic acid] | about 160 | 10 to 12 h | 3 nM |  | 
2 |  |  |  |  | COc1cc(OC)nc(OC(C(=O)O)C(OC)(c2ccccc2)c2ccccc2)n1 (racemic) [racemate, 2-(4,6-dimethoxypyrimidin-2-yloxy)-3-methoxy-3,3-diphenylpropionic acid] |  |  | 6 nM | about 62 | 371 nM
3 |  |  |  |  | COc1cc(OC)nc(O[C@@H](C(=O)O)C(OC)(c2ccccc2)c2ccccc2)n1 [less potent enantiomer] |  |  | 150 nM |  | 
